Measured values taken from patent US20190225670A1, “COMPOUNDS AND METHODS FOR ACTIVATING TIE2 SIGNALING” (ASCLEPIX THERAPEUTICS, LLC, priority 2016, published 2019).

What was measured:
[1] = system: myosin light chain 2 (MLC2); assay: Western blot of pMLC2 in MECs treated with Ang2 and AXT107; type: cell-based, human; conditions: AXT107 and 200 ng/ml Ang2
Experimental: Phosphorylation of Tie2 is known to stimulate the Rap1-GTPase pathway, leading to a reduction in the phosphorylation of the downstream motor protein myosin light chain 2 (MLC2) associated with actin rearrangement.
For Ang1/2 signaling investigations, cell culture dishes (10 cm diameter) were coated with 5 μg/ml fibronectin (FN1; Sigma-Aldrich, St. Louis, Mo.) for two hours at 37° C. The FN1 solution was then removed by aspiration and 5×10^6 microvascular endothelial cells (MECs; Lonza, Walkersville, Md.) were plated in EGM-2MV media (Lonza) and cultured for forty-eight hours at 37° C. The cells were then serum starved for sixteen hours in serum-free EGM-2 base media (Lonza). AXT107 (0-100 μM, as indicated) was subsequently added to each culture and incubated for seventy-five minutes at 37° C. […] Specific proteins were identified by Western blot, using the following primary antibodies: Cell Signaling—phospho-Tie2 (Y992) (Cat#: 4221), Tie2 (Cat#: 7403), phospho-Stat3 (Y705) (Cat#: 4113), Stat3 (Cat#: 4904), phospho-Akt (S473) (Cat#: 4058), Akt (Cat#: 9272), phospho-p44/42 MAPK (T202/Y204) (Cat#: 4370), p44/42 MAPK (Cat#: 4695); BD Transduction Laboratories—β1 integrin (Cat#: 610467); Millipore—α5 integrin (Cat#: AB1928) and detected with HRP-conjugated goat anti-rabbit and sheep anti-mouse secondary antibodies (GE healthcare).

[2] = system: VEGFR2, c-Met, IGF1R, and PDGFRβ; conditions: Lee et al., Sci Rep. 2014; cited from earlier work
VE-cadherin = VE-cadherin western blot and immunofluorescence in MEC monolayers; type: cell-based, human
Experimental: The jaggedness of these junctions is related to the structure of actin within the cell.
Glass-bottomed, 96-well plates with half well size were coated with 10 μg/ml FN1 for two hours at 37° C. The FN1 solution was then removed by aspiration and the plate seeded with 4×10^3 MECs in EGM-2MV media. After twenty-four hours, the cells were washed once with dPBS containing Ca^2+ and Mg^2+ to remove dead cells and the cells were allowed to grow for an additional twenty-four hours. For three-hour duration treatments (i.e., VE-cadherin), cells were washed twice with dPBS containing Ca^2+ and Mg^2+ and serum starved in EBM-2 for ninety minutes. The media was then removed and the cells were treated for three hours with 100 μl of EBM-2 media containing 200 ng/ml Ang2 or PBS and varying concentrations of AXT107 or DMSO. For fifteen minute-treated samples (i.e., phospho-Tie2), the cells were serum starved in EBM-2 media for 165 minutes, incubated for ninety minutes with varying concentrations of AXT107 or DMSO in EBM-2, and finally stimulated for fifteen minutes with 200 ng/ml Ang2 or PBS supplemented with peptide to retain the same concentrations. These times were chosen so that both treatment procedures would be completed at the same time. The cells were then washed twice with cold dPBS containing Ca^2+ and Mg^2+ and fixed in 10% neutral buffered formalin for fifteen minutes. […]

MEC monolayers = assay: FITC Transwell permeability assay; type: cell-based, human
Experimental: The integrity of these junctions is also important for the regulation of monolayer permeability by controlling the size of intercellular openings. The effect of the AXT107 on EC permeability was further investigated by the transendothelial diffusion of FITC-labeled dextran across MEC monolayers seeded onto permeable Transwell® substrates.
Transwell, twenty-four-well inserts (Corning) were coated with 7.5 μg/cm^2 FN1 for two hours at 37° C., aspirated, and then dried for thirty minutes at room temperature. Wells were then seeded with 7.5×10^4 MECs in 100 μl of EBM-2 media (without phenol red) and allowed to settle for thirty minutes at room temperature. 1 ml of EGM-2 media was then added to the bottom chamber and an additional 200 μl to the top chamber. The plate was incubated for twenty-four hours at 37° C. after which the media was aspirated and an additional 7.5×10^4 MECs were plated in each well as described above. After forty-eight hours at 37° C., the media was aspirated from both chambers and the cells were washed twice in dPBS containing Ca^2+ and Mg^2+, once with EBM-2 media (without phenol red) and serum starved in EBM-2 media applied to both chambers for two hours at 37° C. After this incubation, 100 μM AXT107 or an equivalent amount of DMSO vehicle was added and incubated for an additional ninety minutes. In the top chamber, the cells were then treated with 200 ng/ml Ang2, 100 ng/ml VEGFA, both, or PBS control and in the bottom chamber, the cells were then treated with 25 μg/ml FITC-Dextran (40 kDa MW). AXT107 was also added in both chambers to maintain a concentration of 100 μM. After three hours, 10 μl was removed from the top chamber of each well and mixed with 90 μl of water in a clear bottom, 96-well plate. Fluorescence values for each sample were calculated using a Perkin Elmer plate reader.

LRRFSTAPFAFIDINDVINF [AXT107]
phosphorylation of MLC2 [1]: reduced in a dose-dependent manner | receptor phosphorylation and downstream signals of RTKs [2]: significantly decreases | distribution of VE-cadherin at junctions (VE-cadherin; 200 ng/ml Ang2, increasing concentrations of AXT107): became progressively smoother | total level of VE-cadherin (VE-cadherin; three hours of AXT107 and 200 ng/ml Ang2): remained unchanged | FITC-dextran diffusion into the top chamber (MEC monolayers; Ang2 alone added to monolayers pre-incubated with 100 μM AXT107, vs growth factor alone): significant decrease | FITC-dextran diffusion into the top chamber (MEC monolayers; Ang2 in combination with VEGF, monolayers pre-incubated with 100 μM AXT107, vs growth factors alone): significant decrease | FITC-dextran diffusion (MEC monolayers; VEGF in presence vs absence of peptide): similar, but non-significant trend | FITC-dextran diffusion across the monolayer, single treatment (MEC monolayers; each agent alone): influenced FITC-dextran diffusion across the monolayer
